We go through 27 compounds from US20230339866A1, “Quinazoline compounds and the use thereof in the treatment of cancer” (TROBIO THERAPEUTICS PTY LTD, priority 2020, published 2023).

In one experiment the test system is A549 (NSCLC). The experiment in a line: Anti-proliferative activity (Cell-Titre luminescence) against A549 non-small cell lung cancer cells. In kind it is cell-based. The following applies: 72 h exposure, Cell-Titre luminescent reagent. The protocol:
(§1) The ability of compounds of the invention to inhibit the proliferation of cancer cells representative of non-small cell lung cancer and ovarian cancer (Table 2), pancreatic cancer, colorectal cancer and prostate cancer (Table 3) was assessed. Briefly, a predetermined number of cells as calculated from cell growth assays for each of the cell lines employed were seeded into their respective culture medium (using ATCC culture parameters—http://www.atcc.org) and cultured for 24 h at 37° C. and 5% CO2 in 96-well culture plates. Once attached, each cell line was then exposed to various concentrations of each respective analogue (30, 10, 3, 1, 0.3 and 0.1 μM), cultured for a further 72 h and exposed to Cell-Titre luminescent reagent (100 μL/well) for a further 30 min. Luminescence was captured using an EnVision multilabel reader and the data for each analogue concentration compared against no treatment control. Cell viability was normalised to control (vehicle alone) and dose response curves, and half maximal effective concentration (EC50) values were determined using Graph Pad Prism 6 (nonlinear regression sigmoidal dose-response variable slope).

The next experiment has as its system A2780 (ovarian). The experiment in a line: Anti-proliferative activity (Cell-Titre luminescence) against A2780 ovarian cancer cells. It is filed as cell-based. The following applies: 72 h exposure, Cell-Titre luminescent reagent. The protocol:
as §1

With `COc1ccc(Nc2nc(NCCN(C)C)c3ccccc3n2)cc1` [Compound 61, N^4-(2-(dimethylamino)ethyl)-N^2-(4-methoxyphenyl)quinazoline-2,4-diamine], the IC50 worked out at 11.9 µM with A549 (NSCLC) (Homo sapiens, A549, 72 h) and 7.09 µM in the experiment on A2780 (ovarian) (Homo sapiens, A2780, 72 h).

As for `CN(C)CCNc1nc(Nc2cccc(F)c2)nc2ccccc12` [Compound 63, N^4-(2-(dimethylamino)ethyl)-N^2-(3-fluorophenyl)quinazoline-2,4-diamine], the IC50 with A549 (NSCLC) (Homo sapiens, A549, 72 h) is 19.8 µM; in the experiment with A2780 (ovarian) (Homo sapiens, A2780, 72 h) it was 5.67 µM.

In the case of `CN1CCN(CCNc2nc(NCCc3ccc(O)cc3)nc3ccccc23)CC1` [Compound 132, N^2-(4-hydroxyphenethyl)-N^4-(2-(4-methylpiperazin-1-yl)ethyl)quinazoline-2,4-diamine], the IC50 came out at 8.03 µM in the experiment with A549 (NSCLC) (Homo sapiens, A549, 72 h) and 4.71 µM in the experiment with A2780 (ovarian) (Homo sapiens, A2780, 72 h).

As for `CN(C)CCCNc1nc(-c2ccc[nH]2)nc2ccccc12` [Compound 101, N^1-(2-(1H-pyrrol-2-yl)quinazolin-4-yl)-N^3,N^3-dimethylpropane-1,3-diamine], the IC50 with A549 (NSCLC) (Homo sapiens, A549, 72 h) came to 11.6 µM; with A2780 (ovarian) (Homo sapiens, A2780, 72 h), 12.5 µM.

Regarding `COc1ccc(CCNc2nc(NCCN(C)C)c3ccccc3n2)cc1` [Compound 65, N^4-(2-(dimethylamino)ethyl)-N^2-(4-methoxyphenethyl)quinazoline-2,4-diamine], the IC50 with A549 (NSCLC) (Homo sapiens, A549, 72 h) turned out to be 19.4 µM; with A2780 (ovarian) (Homo sapiens, A2780, 72 h), 6.17 µM.

In the case of `c1c[nH]c(-c2nc(NCCc3c[nH]cn3)c3ccccc3n2)c1` [Compound 106, N-(2-(1H-imidazol-4-yl)ethyl)-2-(1H-pyrrol-2-yl)quinazolin-4-amine], the IC50 in the experiment on A549 (NSCLC) (Homo sapiens, A549, 72 h) came to 15.6 µM; in the experiment with A2780 (ovarian) (Homo sapiens, A2780, 72 h) it was 8.43 µM.

Turning to `CN1CCN(CCNc2nc(NCCc3ccc(N(C)C)cc3)nc3ccccc23)CC1` [Compound 134, N^2-(4-(dimethylamino)phenethyl)-N^4-(2-(4-methylpiperazin-1-yl)ethyl)quinazoline-2,4-diamine], the half-inhibitory concentration (IC50) in the experiment on A549 (NSCLC) (Homo sapiens, A549, 72 h) was found to be 8.86 µM; with A2780 (ovarian) (Homo sapiens, A2780, 72 h), 2.68 µM.

Regarding `OCCNc1nc(Nc2ccccc2O)nc2ccccc12` [Compound 149], the IC50 in the experiment on A549 (NSCLC) (Homo sapiens, A549, 72 h) is 3.51 µM; in the experiment on A2780 (ovarian) (Homo sapiens, A2780, 72 h) it was 5.04 µM.

Consider `COc1ccc(CNc2nc(NCCN3CCN(C)CC3)c3ccccc3n2)cc1` [Compound 49, N^2-(4-methoxybenzyl)-N^4-(2-(4-methylpiperazin-1-yl)ethyl)quinazoline-2,4-diamine], for which the 50% inhibitory concentration (IC50) was found to be 8.77 µM in the experiment on A549 (NSCLC) (Homo sapiens, A549, 72 h) and 6.87 µM with A2780 (ovarian) (Homo sapiens, A2780, 72 h).

In the case of `CN1CCN(CCNc2nc(-c3ccc[nH]3)nc3ccccc23)CC1` [Compound 12, N-(2-(4-methylpiperazin-1-yl)ethyl)-2-(1H-pyrrol-2-yl)quinazolin-4-amine], the IC50 in the experiment on A549 (NSCLC) (Homo sapiens, A549, 72 h) worked out at 8.24 µM; in the experiment on A2780 (ovarian) (Homo sapiens, A2780, 72 h), 10.2 µM.

Consider `CN1CCN(CCNc2nc(NCCc3cccc(F)c3)nc3ccccc23)CC1` [Compound 58, N^2-(3-fluorophenethyl)-N^4-(2-(4-methylpiperazin-1-yl)ethyl)quinazoline-2,4-diamine], for which the IC50 in the experiment on A549 (NSCLC) (Homo sapiens, A549, 72 h) came to 5.85 µM; with A2780 (ovarian) (Homo sapiens, A2780, 72 h) it was 6.22 µM.

As to `FC(F)(F)c1cccc(CCNc2nc(NCCN3CCCCC3)c3ccccc3n2)c1` [Compound 114, N^4-(2-(piperidin-1-yl)ethyl)-N^2-(3-(trifluoromethyl)phenethyl)quinazoline-2,4-diamine], the IC50 was 2.36 µM in the experiment on A549 (NSCLC) (Homo sapiens, A549, 72 h) and 0.937 µM in the experiment on A2780 (ovarian) (Homo sapiens, A2780, 72 h).

Consider `CN1CCN(CCNc2nc(NCCc3ccc(F)cc3)nc3ccccc23)CC1` [Compound 59, N^2-(4-fluorophenethyl)-N^4-(2-(4-methylpiperazin-1-yl)ethyl)quinazoline-2,4-diamine], for which the IC50 was 3.7 µM in the experiment on A549 (NSCLC) (Homo sapiens, A549, 72 h) and 5.54 µM in the experiment on A2780 (ovarian) (Homo sapiens, A2780, 72 h).

Consider `CN1CCN(CCNc2nc(NCCc3ccc(Cl)c(Cl)c3)nc3ccccc23)CC1` [Compound 135, N^2-(3,4-dichlorophenethyl)-N^4-(2-(4-methylpiperazin-1-yl)ethyl)quinazoline-2,4-diamine], for which the IC50 was determined as 3.19 µM in the experiment on A549 (NSCLC) (Homo sapiens, A549, 72 h) and 0.66 µM in the experiment on A2780 (ovarian) (Homo sapiens, A2780, 72 h).

Regarding `COc1cccc(CNc2nc(NCCN3CCN(C)CC3)c3ccccc3n2)c1` [Compound 48, N^2-(3-methoxybenzyl)-N^4-(2-(4-methylpiperazin-1-yl)ethyl)quinazoline-2,4-diamine], the IC50 in the experiment with A549 (NSCLC) (Homo sapiens, A549, 72 h) turned out to be 7.4 µM; in the experiment with A2780 (ovarian) (Homo sapiens, A2780, 72 h) it was 4.52 µM.

In the case of `OCCNc1nc(N2CCCC2)nc2ccccc12` [Compound 24, 2-((2-(pyrrolidin-1-yl)quinazolin-4-yl)amino)ethan-1-ol], the IC50 in the experiment on A549 (NSCLC) (Homo sapiens, A549, 72 h) is > 30 µM; in the experiment with A2780 (ovarian) (Homo sapiens, A2780, 72 h), > 30 µM.

Regarding `CN(C)CCNc1nc(NCCc2ccc(F)cc2)nc2ccccc12` [Compound 68, N^4-(2-(dimethylamino)ethyl)-N^2-(4-fluorophenethyl)quinazoline-2,4-diamine], the IC50 was 6.65 µM with A549 (NSCLC) (Homo sapiens, A549, 72 h) and 3.91 µM with A2780 (ovarian) (Homo sapiens, A2780, 72 h).

With `CN(C)CCNc1nc(-n2cccc2)nc2ccccc12` [Compound 99, N^1-(2-(1H-pyrrol-1-yl)quinazolin-4-yl)-N^2,N^2-dimethylethane-1,2-diamine], the IC50 in the experiment with A549 (NSCLC) (Homo sapiens, A549, 72 h) was 22.2 µM; in the experiment with A2780 (ovarian) (Homo sapiens, A2780, 72 h), 10.3 µM.

“N^2-(3-methoxyphenyl)-N^4-(2-(4-methylpiperazin-1-yl)ethyl)quinazoline-2,4-diamine [Compound 43]”: the IC50 in the experiment on A549 (NSCLC) worked out at 6.09 µM; with A2780 (ovarian), 1.03 µM.

As to `CN1CCN(CCNc2nc(NCCc3ccc(C(F)(F)F)cc3)nc3ccccc23)CC1` [Compound 52, N^4-(2-(4-methylpiperazin-1-yl)ethyl)-N^2-(4-(trifluoromethyl)phenethyl)quinazoline-2,4-diamine], the IC50 in the experiment on A549 (NSCLC) (Homo sapiens, A549, 72 h) came to 5.6 µM; with A2780 (ovarian) (Homo sapiens, A2780, 72 h), 1.19 µM.

For `CN1CCN(CCNc2nc(NCCc3ccc4c(c3)OCO4)nc3ccccc23)CC1` [Compound 143, N^2-(2-(benzo[d][1,3]dioxol-5-yl)ethyl)-N^4-(2-(4-methylpiperazin-1-yl)ethyl)quinazoline-2,4-diamine], the IC50 with A549 (NSCLC) (Homo sapiens, A549, 72 h) stood at 9.48 µM; with A2780 (ovarian) (Homo sapiens, A2780, 72 h), 3.01 µM.

As to `OCCNc1nc(NCCc2ccc(F)cc2)nc2ccccc12` [Compound 91, 2-((2-((4-fluorophenethyl)amino)quinazolin-4-yl)amino)ethan-1-ol], the IC50 with A549 (NSCLC) (Homo sapiens, A549, 72 h) stood at 6.76 µM; with A2780 (ovarian) (Homo sapiens, A2780, 72 h), 5.42 µM.

Consider `CC(C)C(CNc1nc(-c2ccsc2)nc2ccccc12)N1CCN(C)CC1` (stereo not drawn) [Compound 1, N-(3-methyl-2-(4-methylpiperazin-1-yl)butyl)-2-(thiophen-3-yl)quinazolin-4-amine], for which the IC50 was 8.06 µM with A549 (NSCLC) (Homo sapiens, A549, 72 h) and 8.59 µM in the experiment with A2780 (ovarian) (Homo sapiens, A2780, 72 h).

For `CN1CCN(CCNc2nc(Nc3ccccc3)nc3ccccc23)CC1` [Compound 40, N^4-(2-(4-methylpiperazin-1-yl)ethyl)-N^2-phenylquinazoline-2,4-diamine], the IC50 in the experiment on A549 (NSCLC) (Homo sapiens, A549, 72 h) is 6.27 µM; in the experiment on A2780 (ovarian) (Homo sapiens, A2780, 72 h), 4.34 µM.

Take `CC(C)C(CNc1nc(-c2cccs2)nc2ccccc12)N1CCN(C)CC1` (stereo not drawn) [Compound 3, N-(3-methyl-2-(4-methylpiperazin-1-yl)butyl)-2-(thiophen-2-yl)quinazolin-4-amine]: the IC50 in the experiment with A549 (NSCLC) (Homo sapiens, A549, 72 h) turned out to be 5.92 µM; with A2780 (ovarian) (Homo sapiens, A2780, 72 h), 8.89 µM.

As for `CN1CCN(CCNc2nc(N3CCCC3)nc3ccccc23)CC1` [Compound 16, N-(2-(4-methylpiperazin-1-yl)ethyl)-2-(pyrrolidin-1-yl)quinazolin-4-amine], the IC50 is > 30 µM in the experiment with A549 (NSCLC) (Homo sapiens, A549, 72 h) and 22.5 µM with A2780 (ovarian) (Homo sapiens, A2780, 72 h).

For the compound `CN(C)CCCNc1nc(-c2cc[nH]c2)nc2ccccc12` [Compound 102, N^1-(2-(1H-pyrrol-3-yl)quinazolin-4-yl)-N^3,N^3-dimethylpropane-1,3-diamine], the IC50 in the experiment with A549 (NSCLC) (Homo sapiens, A549, 72 h) stood at 7.45 µM; with A2780 (ovarian) (Homo sapiens, A2780, 72 h), 1.32 µM.
